Assay results taken from patent EP3409671B1, “ISOTHIAZOLE DERIVATIVES AS GPR120 AGONISTS FOR THE TREATMENT OF TYPE II DIABETES” (Janssen Pharmaceutica NV, priority 2014, dated 2015).
pEC50: −log10 of the molar value.

Target: T1, Human GPR120 short form (Homo sapiens, UniProt Q5NUL3)
T1 construct: expressed in transfected cells
T1 sequence (Q5NUL3 1-361): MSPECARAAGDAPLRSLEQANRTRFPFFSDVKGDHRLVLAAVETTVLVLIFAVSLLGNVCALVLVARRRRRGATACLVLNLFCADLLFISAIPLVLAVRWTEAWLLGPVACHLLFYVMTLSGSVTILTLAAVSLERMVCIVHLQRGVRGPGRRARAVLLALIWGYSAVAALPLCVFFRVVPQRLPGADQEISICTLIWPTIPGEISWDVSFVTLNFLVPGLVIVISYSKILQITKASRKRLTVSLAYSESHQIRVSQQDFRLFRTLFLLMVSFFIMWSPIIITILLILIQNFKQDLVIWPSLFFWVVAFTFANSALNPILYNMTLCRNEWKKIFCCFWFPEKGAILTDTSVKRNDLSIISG
Assay: Human GPR120 Calcium Flux Assay, Procedure Calcium A
Format: cell-based
Settings: HEK-293 cells expressing Human GPR120 short form, FLIPR, 2500 cells / well; read-out: GPR120 Ca^2+ Assay A EC50
From the text: This in vitro assay serves to assess test compound agonist activity against the short splice variant (SVS with Accession number NM_001195755.1 confirmed by sequencing data) of the GPR120 receptor. The Human Short splice variant #2 (NM_001195755.1) is missing an in-frame coding exon compared to variant 1 (the Human Long splice variant NM_181745.3), resulting in a shorter isoform (GPR120-S) lacking a 16 aa protein segment compared to isoform GPR120-L. The assay platform utilizes HEK-293 cells stably transfected to express the Human GPR120 short form. These cells are first loaded with the Ca^+2 sensitive dye, Fluo-4 NW. Upon stimulation, intracellular released Ca^+2 can bind to the dye and alter its fluorescence intensity. This increase in fluorescence signal, and thus the flux in intracellular [Ca^2+], is detected and quantitated by fluorescence imaging using a FLIPR reader. The effect of the agonist is measured as a function of concentration and used to calculate an EC50 based upon a response curve.
In this procedure 2500 cells / well were employed.
A Human GPR120 clone (Genbank accession number NM _001195755.1) was placed into the pcDNA3.1 mammalian expression vector carrying the neomycin resistance gene. A stable mammalian cell was generated by placing the above clone into a HEK293 background. Clonal cells responding to long chain fatty acids had expression levels of GPR120 confirmed by RT-qPCR. Human HEK-GPR120 cells were cultured in Dulbecco's Modified Eagle's Medium (DMEM)/F12 medium supplemented with 10% fetal bovine serum (FBS), 1% L-Glutamine and 1% penicillin/streptomycin and 0.5 mg/ml G-418. Cells were split 2 times a week to keep the cells in the log-phase growth.
In preparation for the assay, HEK cells stably transfected with Human GPR120 (2.5K cells per well in 25uL growth medium) were seeded into 384-well plates and then incubated overnight (37°C, 5% CO2). The next day, the media was changed to 20 µL assay buffer and the cell starved for 1h at 37°C. […]
The assay was performed on a FLIPR plate reader using the following parameters. Baseline was read for 10 seconds at 1 sec intervals. The program was set to transfer 10µL of ligand from compound plate to cell plate after baseline reading. […] After compound addition, each well was read for 300 sec, with measurements collected at 1 sec intervals.
The kinetic data from the FLIPR was based upon a 5 minute window for data collection. The fluorescence of each sample well was used for individual calculations of a normalized RFU value, which was defined as maximum response minus the minimum response. The normalized fluorescence reading (RFU) was calculated as follows: RFU = Fmax−Fmin [formula] […]

pEC50 | SMILES
6.64 | O=C(O)CCc1ccc(OCc2c(C(F)(F)F)nsc2-c2ccc(Cl)cc2)c(Cl)c1Cl [Cpd 55, 3-(2,3-dichloro-4-[[5-(4-chlorophenyl)-3-(trifluoromethyl)-1,2-thiazol4-yl]methoxy]phenyl) propanoic acid]
7.38 | O=C(O)CCc1cc(F)c(OCc2c(Cl)nsc2-c2ccc(Cl)cc2)c(F)c1 [Cpd 75, 3-(4-[[3-chloro-5-(4-chlorophenyl)-1,2-thiazol-4-yl]methoxy]-3,5-difluorophenyl)propanoic acid]
